Measurements: patent US20240189263A1, “DERIVATIZED C60 MOLECULES AND METHODS AND MATERIALS FOR USING DERIVATIZED C60 MOLECULES TO REDUCE RADIATION INJURY” (Mayo Foundation for Medical Education and Research, priority 2021, published 2024)

Columns and labels:
Format in all cases: cell-based
HUVEC cells = test: Seahorse mitochondrial respiration (oxygen consumption rate), HUVEC; settings: pretreated 2 hours before 1 Gy 230 MeV proton
Method: The oxygen consumption rates were assessed in N2A, HUVEC, NIH3T3, and HepG2 cell lines with a Seahorse XFe96 (Agilent Technologies, Santa Clara, CA, USA). Cells were treated with 0 and 1 Gy of 230 MeV proton irradiation. The control plates were run at about the same time post plating. Each cell line was optimized prior to these experiments, and data was presented normalized to cell number plated. The standard mitochondrial stress test was performed using serial injections of oligomycin (1.5 μM), carbonyl cyanide p-(trifluoromethoxy)phenylhydrazone (FCCP, 1 μM), and rotenone/antimycin A mixture (0.5 μM). After injection of oligomycin, which inhibits ATP synthase (complex V), there was a drop in electron flow through the electron transport chain (ETC) and a resultant drop in oxygen consumption rate (OCR) of the cells. Injection of FCCP collapsed the proton gradient and allowed for uninhibited electron flow through the ETC supercomplexes. […] The reserve respiratory capacity was calculated by subtracting the basal respiratory capacity from the maximal respiratory capacity.

N2A cells [1] = test: ROS by H2-DCFDA probe after proton irradiation, N2A; settings: pretreated 100 μM, TBHP 200 μM, 1 Gy proton, read 30 minutes post radiation
Excerpt: Cell lines were irradiated using pencil beam scanning (PBS) proton beams produced by IBA ProteusOne (Ion Beam Applications, Louvain-la-Neuve, Belgium). Single layer mono-energy 227 MeV pencil beams with uniform spacing of 0.25 cm between each spot were used to create a large field size with uniform dose distribution (±2%) that encompassed all sample wells containing the cells. A fixed source to surface distance (SSD) setup and gantry at 180 degrees was used to delivery 0.5, 1, 2, 4, and 6 Gray (Gy) dose of ionizing radiation to cells. The cells were place at an 8 cm depth, with a linear energy transfer (LET) of approximately 1.7 keV/μm, using solid water slabs as a buildup. […] The monitor units needed to deliver the intended dose were calculated using the measure dose/MU values.
Post radiation, 2′,7′-dichlorodihydrofluorescein diacetate (H2-DCFDA) probes were used to measure the level of reactive oxygen species (ROS) post-proton radiation (1 Gy, 230 MeV proton beam). […] A fluorescence microplate reader (SpectraMax M5, Molecular Devices Corporation, California, USA) was used to detect the generation of fluorescent DCF molecules with an excitation filter of 485 nm and an emission filter of 525 nm, with a 515 nm cutoff filter. […] Following irradiation, the cells were transported back for plate reading, 30 minutes post radiation.

N2A cells [2] = test: DNA damage, γH2AX foci immunofluorescence, N2A
Method: To test the ability of C60-ser to protect against radiation injury, the level of DNA damage in response to radiation was analyzed by measuring γH2AX. The H2AX protein becomes phosphorylated into γH2AX as a result of DNA double strand breaks. This allows for the visualization and quantification of double strand break foci through immunofluorescence analysis. Cells were plated on 8 chamber slides and incubated overnight before C60-ser treatment. Three sets of slides per cell line (to be irradiated with 0, 0.5, and 1 Gy) were prepared, with the top 4 rows used as a control and the bottom 4 rows incubated with 100 μM C60-ser. Cells were incubated with C60-ser for 2 hours before irradiation with a clinical Proteus One proton machine (Ion Beam Applications, Louvain-la-Neuve, Belgium). A 230 MeV mono-energetic unmodulated broad beam of large field size that encompassed all slides containing the cells was used to deliver the 0.5 and 1 Gy doses. White solid water slabs (IBA Dosimetry, Germany) provided the necessary phantom material to place the cells at the desired 8 cm depth with an LET of approximately 1.7 keV/μm. After irradiation, cells were incubated at 37° C. with 5% CO2 for 30 minutes before washing and fixing the cells with 1% formaldehyde. The cells were permeabilized with 1% NP-40 and incubated with 5% BSA to block unspecific antibody bonding. The cells were then incubated with γH2AX primary antibody followed by a secondary antibody. Mounting media containing DAPI was used before applying cover slips and sealing the samples. Cells were imaged on an Olympus IX71 trinocular inverted fluorescence phase contrast microscope with a 40× objective. The resulting images were analyzed by ImageJ, and the foci were counted.

O=C(NC(CO)CO)C1(C(=O)NC(CO)CO)C23c4c5c6c7c8c4-c4c2c2c9c%10c4C4%11c%12c-%10c%10c%13c%14c%12-c%12c(c-7c7c%15c%12C%14%12C(C(=O)NC(CO)CO)(C(=O)NC(CO)CO)C%12%14c%12c%16c%17c%18c(c%12-%15)C7%12C(C(=O)NC(CO)CO)(C(=O)NC(CO)CO)C6%12c6c-5c5c7c(c6-%18)C%176C(C(=O)NC(CO)CO)(C(=O)NC(CO)CO)C6%12c6c-7c(c-2c2c6-c6c%12c-%16c%14c-%13c6C%106C(C(=O)NC(CO)CO)(C(=O)NC(CO)CO)C926)C513)C84C%11(C(=O)NC(CO)CO)C(=O)NC(CO)CO (centres unmarked) [C60-ser, C60-serinol]
radiation-induced increase in respiratory capacity (HUVEC cells): dampened and, in some cases, reduced to normal or slightly below normal levels | ROS (H2-DCFDA fluorescence) (N2A cells [1]): significant reduction in ROS | γH2AX foci vs control (N2A cells [2]; 100 μM 2 hours before 0.5 Gy proton radiation): trend towards reduction in total foci formed, but it was not statistically significant | γH2AX foci vs control (N2A cells [2]; 100 μM 2 hours before 1 Gy proton radiation): significant decrease in the number of foci | γH2AX foci vs control (N2A cells [2]; 100 μM 2 hours, absence of radiation): no significant different in foci expression
